Experimental findings from patent US10752635B2, “Indazole compounds and uses thereof” (Incyte Corporation, priority 2018, dated 2020) are described below.

By Ki is commonly meant the dissociation constant of the complex between target and ligand, obtained from inhibition or displacement. Lower therefore signals a stronger hold on the target.

Each structure is given as a SMILES string. Bounds are passed on as bounds.

The target in the test is HPK1 (Homo sapiens (Human), UniProt Q92918). Put plainly: HPK1 Kinase Binding Assay. The note with it: active HPK1 (SignalChem M23-11G), tracer 222, LanthaScreen Eu-Anti GST antibody, one hour at 25° C. How it is done: A stock solution of 1 mM test compound was prepared in DMSO. The compound plate was prepared by 3-fold and 11-point serial dilutions. 0.1 μL of the compound in DMSO was transferred from the compound plate to the white 384 well polystyrene plates. The assay buffer contained 50 mM HEPES, pH 7.5, 0.01% Tween-20, 5 mM MgCl2, 0.01% BSA, and 5 mM DTT. 5 μL of 4 nM active HPK1 (SignalChem M23-11G) prepared in the buffer was added to the plate. The enzyme concentration given was based on the given stock concentration reported by the vender. […] After one hour incubation at 25° C., the plates were read on a PHERAstar FS plate reader (BMG Labtech). Ki values were determined.
Sequence of HPK1 (Q92918 1-346 limits assumed): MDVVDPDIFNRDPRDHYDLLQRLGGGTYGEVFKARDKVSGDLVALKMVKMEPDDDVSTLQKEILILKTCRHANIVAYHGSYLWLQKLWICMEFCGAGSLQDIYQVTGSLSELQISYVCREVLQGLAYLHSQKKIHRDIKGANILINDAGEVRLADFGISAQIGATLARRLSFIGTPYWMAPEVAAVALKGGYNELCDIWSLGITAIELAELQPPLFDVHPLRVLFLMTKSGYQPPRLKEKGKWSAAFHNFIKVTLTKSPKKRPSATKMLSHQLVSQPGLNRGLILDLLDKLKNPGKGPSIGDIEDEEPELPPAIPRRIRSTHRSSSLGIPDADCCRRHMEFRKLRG
For `COCCn1ncc2c(N3C[C@@H](N)C[C@H]3CO)c(NC(=O)c3ccnc(-c4c(F)cccc4OC)n3)cc(F)c21` [Example 31, N-(4-((2S,4S)-4-Amino-2-(hydroxymethyl)pyrrolidin-1-yl)-7-fluoro-1-(2-methoxyethyl)-1H-indazol-5-yl)-2-(2-fluoro-6-methoxyphenyl)pyrimidine-4-carboxamide], the inhibition constant (Ki) is < 0.1 µM.
As to `COc1cccc(F)c1-c1nccc(C(=O)Nc2cc(F)c3c(cnn3C)c2-n2cccn2)n1` [Example 13, N-(7-Fluoro-1-methyl-4-(1H-pyrazol-1-yl)-1H-indazol-5-yl)-2-(2-fluoro-6-methoxyphenyl)pyrimidine-4-carboxamide], the Ki is < 0.1 µM.
Consider `COc1cccc(F)c1-c1nccc(C(=O)Nc2cc(F)c3c(cnn3C)c2-c2ccccc2CO)n1` [Example 23, N-(7-Fluoro-4-(2-(hydroxymethyl)phenyl)-1-methyl-1H-indazol-5-yl)-2-(2-fluoro-6-methoxyphenyl)pyrimidine-4-carboxamide], for which the Ki was < 0.1 µM.
In the case of `COc1cccc(F)c1-c1nccc(C(=O)Nc2cc(C)c3nn(C)cc3c2N2CCNCC2)n1` [18, Peak 1], the inhibition constant (Ki) was < 0.1 µM.
For `COc1cccc(F)c1-c1nccc(C(=O)Nc2cc(F)c3c(cnn3C)c2-c2cccc(CN(C)C)c2)n1` [Example 24, N-(4-(3-((Dimethylamino)methyl)phenyl)-7-fluoro-1-methyl-1H-indazol-5-yl)-2-(2-fluoro-6-methoxyphenyl)pyrimidine-4-carboxamide], the Ki is < 0.1 µM.
For `COc1cccc(F)c1-c1nccc(C(=O)Nc2cc(C)c3c(cnn3C)c2N2CCNCC2)n1` [18, Peak 2] the value was < 0.1 µM; for `CNC(=O)c1ccc(OC)c(-c2nccc(C(=O)Nc3cc(F)c4c(cnn4CCOC)c3N3C[C@@H](N)C[C@H]3CO)n2)c1F` [Example 39, N-(4-((2S,4S)-4-Amino-2-(hydroxymethyl)pyrrolidin-1-yl)-7-fluoro-1-(2-methoxyethyl)-1H-indazol-5-yl)-2-(2-fluoro-6-methoxy-3-(methylcarbamoyl)phenyl)pyrimidine-4-carboxamide], < 0.1 µM.
In the case of `COCCn1ncc2c(N3C[C@@H](N)C[C@H]3CO)c(NC(=O)c3ccnc(-c4c(OC)ccc(-c5cnn(C)c5)c4F)n3)cc(F)c21` [Example 40, N-(4-((2S,4S)-4-Amino-2-(hydroxymethyl)pyrrolidin-1-yl)-7-fluoro-1-(2-methoxyethyl)-1H-indazol-5-yl)-2-(2-fluoro-6-methoxy-3-(1-methyl-1H-pyrazol-4-yl)phenyl)pyrimidine-4-carboxamide], the Ki is < 0.1 µM.
Consider `COc1cccc(F)c1-c1nccc(C(=O)Nc2cc(F)c3c(cnn3C)c2N2CCC3(CCNC3=O)C2)n1` (single isomer, unassigned; peak 2) [8, Peak 2], for which the Ki was < 0.1 µM.
With `COc1cccc(F)c1-c1nccc(C(=O)Nc2cc(F)c3c(cnn3C)c2-c2ccccc2C)n1` (single isomer, unassigned; peak 2) [14, Peak 2] the figure was < 0.1 µM; with `COc1cccc(F)c1-c1nccc(C(=O)Nc2cc(F)c3c(cnn3C)c2-c2cccnc2)n1` [Example 20, N-(7-Fluoro-1-methyl-4-(pyridin-3-yl)-1H-indazol-5-yl)-2-(2-fluoro-6-methoxyphenyl)pyrimidine-4-carboxamide], < 0.1 µM.
